Laboratory results reported in publication PMC6155752, “Synthesis of 16 New Hybrids from Tetrahydropyrans Derivatives and Morita-Baylis-Hillman Adducts: In Vitro Screening against Leishmania donovani” (Molecules : A Journal of Synthetic Chemistry and Natural …, 2017).
“And” between values parts separate entries of the source, which are not always exact repeats. Equal entries are not always repeated. Where two headings read alike, the source gives them in different places.

Assays:
[1] = system: promastigotes of Leishmania donovani; test: Effect on promastigotes of Leishmania donovani (MTT viability assay, 72 h); assay type: cell-based; conditions: L. donovani promastigotes; for IC50: read-out: IC50 (half maximal inhibitory concentration)
Description: Leishmania (Leishmania) donovani (MHOM/ET/1967/HU3) was provided by Oswaldo Cruz Institute Leishmania Collection-Fiocruz-RJ-Brazil. Promastigotes were maintained in vitro at 26 °C in Schneider's medium, pH 7 (20% heat-inactivated fetal bovine serum (FBS), 100 U/mL penicillin, […] streptomycin, and 2% of male urine), as previously described. […] The plates were incubated for 72 h in a biological oxygen demand (B.O.D.) incubator at 26 °C. […] [30].The absorbance was measured using an ELISA plate reader (ELx800, BIOTEK) at 540 nm. Amphotericin® was used as a positive control. The viability of promastigotes incubated in the presence of different concentrations of adducts was determined by comparing to a culture control (L. donovani cultivated in Schneider only). The concentration that caused a 50% reduction in cell viability (IC50) was calculated by Probit analysis (SPSS 13.0 for Windows). Each experiment was performed in duplicate and repeated at least three times.

human red blood cells = test: Haemolytic assay towards human red blood cells; assay type: cell-based; conditions: HC50 red blood cells / IC50 L. donovani promastigotes
Description: Briefly, promastigotes in the logarithmic growth phase were cultured in 96-well cell culture plates at 1 × 10^6 parasites per well in […] of Schneider's medium with increasing concentrations of 3.12, 6.25, 12.5, 25, 50, 100, 200, and 400 µg/mL of Morita-Baylis-Hillman adduct. The plates were incubated for 72 h in a biological oxygen demand (B.O.D.) incubator at 26 °C. Cytotoxicity to promastigotes was evaluated by the 3-(4,5-dimethyl-2-thiazole)-2,5-diphenyltetrazolium bromide (MTT) colorimetric assay as described by Valadares et al..The absorbance was measured using an ELISA plate reader (ELx800, BIOTEK) at 540 nm. Amphotericin® was used as a positive control. The viability of promastigotes incubated in the presence of different concentrations of adducts was determined by comparing to a culture control (L. donovani cultivated in Schneider only). The concentration that caused a 50% reduction in cell viability (IC50) was calculated by Probit analysis (SPSS 13.0 for Windows). Each experiment was performed in duplicate and repeated at least three times. Haemolytic assays (HC50 > […]) towards human red blood cells were performed as described in the literature.

Leishmania = conditions: read-out: IC50 (leishmanicidal activity), cited from earlier work
[2] = system: acetic acid-induced abdominal writhes; test: Acetic acid-induced abdominal writhes in mice; assay type: in vivo; conditions: unpublished results
[3] = system: acetic acid-induced abdominal writhes; set-up: method as in earlier work; conditions: mice, ref 16 (Capim et al., Bioorg. Med. Chem. 2013); cited from earlier work
L. donovani = system: L. donovani; set-up: method as in PMID 27520941; conditions: read-out: anti-leishmania activity; cited from earlier work
[4] = Figure 1, hybrid 5 and precursor eugenol
[5] = Figure 1, hybrid 1 and precursors

Compound | IC50 ([1]; Leishmania donovani) | further results
C=C(C(=O)OCC1CCCC(CC)O1)C(O)c1ccccc1[N+](=O)[O-] (stereo not shown) [9a, 2-[Hydroxy-(2-nitro-phenyl)-methyl]-acrylic acid 6-ethyl-tetrahydro-pyran-2-ylmethyl ester] | 5.64 µg/mL and 16.1 µM | SIrb (selectivity index on red blood cell) = HC50/IC50 (human red blood cells): >70.94
C=C(C(=O)OCC1CC(Cl)CC(c2cccc3ccccc23)O1)C(O)c1ccccc1[N+](=O)[O-] (stereo not shown) [8a, 2-[Hydroxy-(2-nitro-phenyl)-methyl]-acrylic acid 4-chloro-6-naphthalen-1-yl-tetrahydro-pyran-2-ylmethyl ester] | 7.09 µg/mL and 14.7 µM | SIrb (selectivity index on red blood cell) = HC50/IC50 (human red blood cells): >56.40
2-(Hydroxy-naphthalen-2-yl-methyl)-acrylic acid 6-ethyl-tetrahydro-pyran-2-ylmethyl ester [9g] | – | IC50 (half maximal inhibitory concentration) [1]: 9.73 ± 4.8 µg/mL; IC50 [1]: 27.5 ± 13.6 µM
CC[C@@H]1CCC[C@H](CO)O1 [compound 5] | – | IC50 (Leishmania; [4]): 4.7 µM
CC[C@@H]1CCC[C@H](CO)O1 [compound 7] | > 400 µg/mL and > 2.78 mM | Calculated ED50 [2]: 41.67 μmol·kg^–1
OC[C@H]1C[C@@H](Cl)C[C@@H](c2cccc3ccccc23)O1 (relative stereo) [compound 6, [(±)-(2,4,6-cis)-4-chloro-6-(naphthalen-1-yl)-tetrahydro-2H-pyran-2-yl]methanol] | 47.5 µg/mL and 172 µM | Calculated ED50 [3]: 27.97 μmol·kg^–1
C=C(C(=O)OCC1CC(Cl)CC(c2cccc3ccccc23)O1)C(O)c1cccnc1 (stereo not shown) [8e, 2-(Hydroxy-pyridin-3-yl-methyl)-acrylic acid 4-chloro-6-naphthalen-1-yl-tetrahydro-pyran-2-yl methyl ester] | 8.76 µg/mL and 20 µM | –
C=C(C(=O)OCC1CC(Cl)CC(c2cccc3ccccc23)O1)C(O)c1ccc(Br)cc1 (stereo not shown) [8h, 2-[(4-Bromo-phenyl)-hydroxy-methyl]-acrylic acid 4-chloro-6-naphthalen-1-yl-tetrahydro-pyran-2-ylmethyl ester] | 17.2 µg/mL and 33.4 µM | –
C=C(C(=O)Oc1ccccc1C(=O)OC)C(O)c1ccccc1[N+](=O)[O-] (stereo not shown) [compound 1] | – | IC50 (Leishmania; [5]): 28.3 µM
C=C(C(=O)OCC1CCCC(CC)O1)C(O)c1ccc([N+](=O)[O-])cc1 (stereo not shown) [9c, 2-[Hydroxy-(4-nitro-phenyl)-methyl]-acrylic acid 6-ethyl-tetrahydro-pyran-2-ylmethyl ester] | 7.03 µg/mL and 20.1 µM | SIrb (selectivity index on red blood cell) = HC50/IC50 (human red blood cells): >56.91
C=C(C(=O)OCC1CCCC(CC)O1)C(O)c1ccc(Br)cc1 (stereo not shown) [9h, 2-[(4-Bromo-phenyl)-hydroxy-methyl]-acrylic acid 6-ethyl-tetrahydro-pyran-2-ylmethyl ester] | 2.22 µg/mL and 5.81 µM | SIrb (selectivity index on red blood cell) = HC50/IC50 (human red blood cells): >180.19
C=C(C(=O)OCC1CCCC(CC)O1)C(O)c1ccccn1 (stereo not shown) [9d, 2-(Hydroxy-pyridin-2-yl-methyl)-acrylic acid 6-ethyl-tetrahydro-pyran-2-ylmethyl ester] | 72.3 µg/mL and 240 µM | –
C=C(C(=O)OCC1CC(Cl)CC(c2cccc3ccccc23)O1)C(O)c1ccc([N+](=O)[O-])cc1 (stereo not shown) [8c, 2-[Hydroxy-(4-nitro-phenyl)-methyl]-acrylic acid 4-chloro-6-naphthalen-1-yl-tetrahydro-pyran-2-ylmethyl ester] | 9.05 µg/mL and 18.8 µM | –
C=C(C(=O)OC)C(O)c1ccccc1[N+](=O)[O-] (stereo not shown) [compound 3] | – | IC50 (Leishmania; [5]): 347 µM
C=C(C(=O)OCC1CC(Cl)CC(c2cccc3ccccc23)O1)C(O)c1cccc([N+](=O)[O-])c1 (stereo not shown) [8b, 2-[Hydroxy-(3-nitro-phenyl)-methyl]-acrylic acid 4-chloro-6-naphthalen-1-yl-tetrahydro-pyran-2-yl-methyl ester] | 8.76 µg/mL and 18.2 µM | –
C=C(C(=O)OCC1CCCC(CC)O1)C(O)c1cccc([N+](=O)[O-])c1 (stereo not shown) [9b, 2-[Hydroxy-(3-nitro-phenyl)-methyl]-acrylic acid 6-ethyl-tetrahydro-pyran-2-ylmethyl ester] | 13.8 µg/mL and 39.4 µM | –
C=C(C(=O)OCC1CC(Cl)CC(c2cccc3ccccc23)O1)C(O)c1ccncc1 (stereo not shown) [8f, 2-(Hydroxy-pyridin-4-yl-methyl)-acrylic acid 4-chloro-6-naphthalen-1-yl-tetrahydro-pyran-2-yl methyl ester] | 8.96 µg/mL and 20.5 µM | –
C=C(C(=O)OCC1CCCC(CC)O1)C(O)c1cccnc1 (stereo not shown) [9e, 2-(Hydroxy-pyridin-3-yl-methyl)-acrylic acid 6-ethyl-tetrahydro-pyran-2-ylmethyl ester] | 17.7 µg/mL and 57.9 µM | –
C=C(C(=O)OCC1CCCC(CC)O1)C(O)c1ccncc1 (stereo not shown) [9f, 2-(Hydroxy-pyridin-4-yl-methyl)-acrylic acid 6-ethyl-tetrahydro-pyran-2-ylmethyl ester] | 57.8 µg/mL and 189 µM | –
C=C(C(=O)OCC1CC(Cl)CC(c2cccc3ccccc23)O1)C(O)c1ccccn1 (stereo not shown) [8d, 2-(Hydroxy-pyridin-2-yl-methyl)-acrylic acid 4-chloro-6-naphthalen-1-yl-tetrahydro-pyran-2-yl methyl ester] | 61.9 µg/mL and 142 µM | –
2-(Hydroxy-naphthalen-2-yl-methyl)-acrylic acid 4-chloro-6-naphthalen-1-yl-tetrahydro-pyran -2-ylmethyl ester [8g] | – | IC50 (half maximal inhibitory concentration) [1]: 24.51 ± 7.5 µg/mL; IC50 [1]: 50.4 ± 15.4 µM
C[C@@H]1[C@H](O)[C@@H](C)/C=C/C=C/C=C/C=C/C=C/C=C/C=C/[C@H](O[C@@H]2O[C@H](C)[C@@H](O)[C@H](N)[C@@H]2O)C[C@@H]2O[C@](O)(C[C@@H](O)C[C@@H](O)[C@H](O)CC[C@@H](O)C[C@@H](O)CC(=O)O[C@H]1C)C[C@H](O)[C@H]2C(=O)O [Amphotericin B, reference compound] | 0.35 µg/mL and 380 nM | IC50 (L. donovani): 0.62 µM; SIrb (selectivity index on red blood cell) = HC50/IC50 (human red blood cells): 33.05
C=CCc1ccc(O)c(OC)c1 [compound 4, eugenol] | – | IC50 (Leishmania; [4]): 77.5 µM
COC(=O)c1ccccc1O [compound 2, methyl salicylate] | – | IC50 (Leishmania; [5]): 1720 µM
